# Results reported in article PMC11881343, “Safety of ilunocitinib tablets (Zenrelia™) after once daily oral administration in dogs” (BMC Veterinary Research, 2025).
# What was measured:
# [1] = 6-month safety study: body weights and food consumption; type: in vivo, dog
# Description: (§1) Endpoints measured multiple times post-treatment that included a pre-treatment measurement (Serum chemistry, C-reactive protein, coagulation, hematology, urinalysis, body weight, body weight changes and food consumption) were analyzed using repeated measures analysis of covariance (RMANCOVA) with ‘treatment’, ‘time’, and ‘sex’; the two-way interactions ‘treatment by time’, ‘treatment by sex’, and ‘sex by time’; the three-way interaction ‘treatment by time by sex’ and a covariate all as fixed effects. The last available pre-treatment value was used as the covariate.
# [2] = tablets, dogs; no reference given; cited from earlier work
# [3] = tested on: leukocyte subsets (T, Th, Tc, B lymphocytes, monocytes); test: Peripheral blood immunophenotyping by flow cytometry; type: in vivo, dog; details: either sex at any dose level
# Source text: Whole blood samples were also collected from the jugular vein for the evaluation of the leukocyte subsets and phenotypes on study days − 16 and − 8, and on study days 29, 57, 85, 113, 141, 169 and 183. The immunophenotype profiling by flow cytometry included total T lymphocytes (CD45 + CD5 + or CD5 + T cells), Helper T lymphocytes (CD45 + CD5 + CD4 + or CD4 + Th cells), Cytotoxic T lymphocytes (CD45 + CD5 + CD8 + or CD8 + Tc cells), B lymphocytes (CD45 + CD5- CD21 + or CD21 + B cells) and monocytes (CD45 + CD14+).
# For immunophenotyping/peripheral blood leukocytes, a generalized linear mixed model for repeated measures analysis of variance (mixed model) was conducted. For each endpoint, the model tested for the effects of treatment, time, sex and all two and three-way interactions. The last available pre-treatment value was included in the model as a covariate. The evaluation proceeded as described for RMANCOVA.
# dogs = details: field conditions; cited from earlier work
# healthy Beagle dogs = test: 6-month safety study: clinical pathology (hematology, coagulation, clinical chemistry, C-reactive protein, urinalysis); type: in vivo, dog; details: for MCHC, effect compared to 0X / Hb (hemoglobin), effect compared to 0X / Total Protein, effect compared to 0X / MCH, effect compared to 0X / HCT (hematocrit), effect compared to 0X / RBC, effect compared to 0X: all study days; for Hb (hemoglobin), effect compared to 0X / HCT (hematocrit), effect compared to 0X / RBC, effect compared to 0X: pooled sexes; for Total Protein, effect compared to 0X: significant in pooled by sex, males (2X, 3X, 5X) females (3X, 5X); for Albumin, effect compared to 0X: beginning on study day 57; for Eosinophils, effect compared to 0X: study days 29–183, females only; for Fibrinogen, effect compared to 0X: study days 57–183, association with interdigital cysts
# Description: Blood samples were collected from the jugular vein for the evaluation of hematology, clinical chemistry and coagulation variables at pre-test, and on study days 29, 57, 85, 113, 141, 169 and 183. The complete panel of clinical pathology parameters (hematology, blood chemistry and urinalysis) according to VICH Guideline 43 [10] are listed in Table 1. Urine samples were collected using steel pans placed under the cages for at least 16 h at the same timepoints.
# as §1
# If the interaction terms were significant (P ≤ 0.10 level for two-way interactions and P ≤ 0.05 for the three-way interaction), treated groups were compared to the control either within each sex (treatment by sex significant), within each time point (treatment by time significant) or main effect only (neither treatment by sex nor treatment by time significant).
# [4] = dog, in vivo
# Description: Samples were collected at pre-dose and at 0.5, 1, 2, 5, 8 and 24 h post-dosing on the day of the first and last dose (study days 1 and 182) and at pre-dose and at 1 and 24 h post-dosing at study day 85. Blood samples were collected in tubes containing K2 EDTA. Blood was processed to plasma within one hour of collection and plasma samples were stored frozen at -20 °C until analyzed.
# The bioanalytical data were processed as individual concentration vs. time profiles using a non-compartmental analysis (NCA). Calculations were performed with the software Phoenix WinNonlin (version 8.3; Certara, USA). Tmax and Cmax were derived from observed values. AUCs were calculated using the Linear Up Log Down method. In addition, T1/2 was calculated using the best fit method and dose, time and sex effects were evaluated based on Cmax and AUClast ratios.
# [5] = 1X group (0.8 mg/kg/day, 6 months)
# [6] = 2X group (1.6 mg/kg/day, 6 months)
# [7] = 3X group (2.4 mg/kg/day, 6 months)
# [8] = 5X group (4.0 mg/kg/day, 6 months)
# [9] = males at 2X, 3X, and 5X and females at 5X, beginning study day 57, 85, or 113 through study day 183
smiles,measurement,setting,value
N#CCC1(n2cc(-c3ncnc4[nH]ccc34)cn2)CN(S(=O)(=O)C2CC2)C1 [ilunocitinib],Body weight gain,[1]; [5],0.06 ± 0.02 kg
same,mean body weight (± standard error) throughout the study,[1]; [5],10.30 ± 0.20 kg
same,"body weight, treatment effect vs control","[1]; 1X, 3X and 5X groups, main effect of treatment p = 0.0026",statistically significant increases
same,Body weight gain,[1]; [6],0.03 ± 0.02 kg
same,mean body weight (± standard error) throughout the study,[1]; [6],9.76 ± 0.20 kg
same,"body weight change, treatment effect vs control","[1]; 3X and 5X, main effect of treatment p = 0.0952",statistically significant increases
same,Body weight gain,[1]; [7],0.06 ± 0.02 kg
same,mean body weight (± standard error) throughout the study,[1]; [7],10.31 ± 0.20 kg
same,Body weight gain,[1]; [8],0.06 ± 0.02 kg
same,mean body weight (± standard error) throughout the study,[1]; [8],10.46 ± 0.20 kg
same,"weekly averaged daily food consumption, treatment effect",[1]; all dose groups,statistically significant (p = 0.0872) time by treatment interaction
same,increase in oral bioavailability when given with food or after feeding,[2],~20%
same,effects on leukocyte analysis (immunophenotyping) parameters,[3],no test article-related effects
same,Weight gain in dogs under field conditions,dogs,in very few cases
same,red cell parameters,healthy Beagle dogs; 1X group,stayed within the reference range
same,"MCHC, effect compared to 0X",healthy Beagle dogs; 2X (1.6 mg/kg/day),minimally lower and ↓
same,"Hb (hemoglobin), effect compared to 0X",healthy Beagle dogs; 2X (1.6 mg/kg/day),minimally lowered and ↓
same,"Total Protein, effect compared to 0X",healthy Beagle dogs; 2X (1.6 mg/kg/day),↑
same,"MCH, effect compared to 0X",healthy Beagle dogs; 3X (2.4 mg/kg/day),minimally lower and ↓
same,"MCHC, effect compared to 0X",healthy Beagle dogs; 3X (2.4 mg/kg/day),minimally lower and ↓
same,"HCT (hematocrit), effect compared to 0X",healthy Beagle dogs; 3X (2.4 mg/kg/day),↓
same,"Hb (hemoglobin), effect compared to 0X",healthy Beagle dogs; 3X (2.4 mg/kg/day),minimally lowered and ↓
same,"RBC, effect compared to 0X",healthy Beagle dogs; 3X (2.4 mg/kg/day),↓
same,"Total Protein, effect compared to 0X",healthy Beagle dogs; 3X (2.4 mg/kg/day),↑
same,"Albumin, effect compared to 0X",healthy Beagle dogs; 3X (2.4 mg/kg/day),minimally lower and ↓
same,"Total Protein, effect compared to 0X (time by treatment interaction)","healthy Beagle dogs; 3X (2.4 mg/kg/day), study day 113",minimally higher means and ↑
same,"Eosinophils, effect compared to 0X",healthy Beagle dogs; 3X (2.4 mg/kg/day),↓
same,"Fibrinogen, effect compared to 0X",healthy Beagle dogs; 3X (2.4 mg/kg/day),marginally elevated concentrations and ↑
same,"MCH, effect compared to 0X",healthy Beagle dogs; 5X (4.0 mg/kg/day),minimally lower and ↓
same,"MCHC, effect compared to 0X",healthy Beagle dogs; 5X (4.0 mg/kg/day),minimally lower and ↓
same,"HCT (hematocrit), effect compared to 0X",healthy Beagle dogs; 5X (4.0 mg/kg/day),↓
same,"Hb (hemoglobin), effect compared to 0X",healthy Beagle dogs; 5X (4.0 mg/kg/day),minimally lowered and ↓
same,"RBC, effect compared to 0X",healthy Beagle dogs; 5X (4.0 mg/kg/day),↓
same,"Total Protein, effect compared to 0X",healthy Beagle dogs; 5X (4.0 mg/kg/day),↑
same,"Albumin, effect compared to 0X",healthy Beagle dogs; 5X (4.0 mg/kg/day),minimally lower and ↓
same,"Eosinophils, effect compared to 0X",healthy Beagle dogs; 5X (4.0 mg/kg/day),↓
same,"Fibrinogen, effect compared to 0X",healthy Beagle dogs; 5X (4.0 mg/kg/day),marginally elevated concentrations and ↑
same,"Total Protein, effect compared to 0X (time by treatment interaction)","healthy Beagle dogs; 5X (4.0 mg/kg/day), study days 85,113,141",minimally higher means and ↑
same,myeloid: erythroid ratios,healthy Beagle dogs; Two dogs in the 5X group,minimally lower
same,"effects on lymphocytes, monocytes, basophils and reticulocytes",healthy Beagle dogs; all dose levels,no treatment-related effects
same,"alkaline phosphatase, alanine aminotransferase, aspartate aminotransferase, triglycerides, plasma creatinine and urea levels or any other clinical chemistry parameters","healthy Beagle dogs; all treatment groups, within normal ranges",No changes
same,effects on urinalysis endpoints,healthy Beagle dogs; either sex at any dose level,no test article-related effects
same,C-reactive protein (CRP) levels,"healthy Beagle dogs; elevated doses, dogs with visible skin disease",higher
same,Total protein values in males vs control,"healthy Beagle dogs; males at 2X, 3X, and 5X",significantly (p = 0.0437) higher
same,Mean globulin concentrations vs control means,healthy Beagle dogs; [9],minimally higher
same,mean albumin/globulin ratios vs control means,healthy Beagle dogs; [9],minimally to mildly lower
same,prothrombin time and activated partial thromboplastin time,"healthy Beagle dogs; throughout the study, all dose levels",remained in the reference range
same,half-life,[4],approximately 3 h
same,increase of exposure with dose,[4],close to dose proportional
